# Values of other authors in PubChem BioAssay AID1259409 (Chemical Carcinogenesis Research Information System (CCRIS), 2018).
# Test system: rodent chemically induced tumor inhibition, incidence and multiplicity
# Test: CCRIS tumor inhibitor studies
# Conditions: Carcinogen: N-METHYL-N-NITROSOUREA, 684-93-5, Route [Inhibitor]: ORAL, Species: RAT, Promoter: NONE USED
smiles,measurement,setting,value
CC1=C(/C=C/C(C)=C/C=C/C(C)=C/C(=O)Nc2ccc(O)cc2)C(C)(C)CCC1,"tumour outcome (control, treated, inhibition, significance)","Dose [Inhibitor]: 0, 782 MG/KG OF GRAIN-BASED WAYNE DIET FOR DURATION OF STUDY BEGINNING 7 D POST CARCINOGEN DOSE (STUDY DURATION: 25 WK), Strain/Sex: F344/FEMALE, Target Tissue: Type of Lesion: MAMMARY GLAND: TUMOR, Dose [Carcinogen]: 45 MG/KG BW ONCE AT 50 D OF AGE","9/25 (36%), 6/25 (24%), 33%, not significant"
same,"tumour outcome (control, treated, inhibition, significance)","Dose [Inhibitor]: 0, 782 MG/KG OF GRAIN-BASED WAYNE DIET FOR DURATION OF STUDY BEGINNING 7 D PRIOR TO CARCINOGEN DOSE (STUDY DURATION: 26, Strain/Sex: F344/FEMALE, Target Tissue: Type of Lesion: MAMMARY GLAND: TUMOR, Dose [Carcinogen]: 45 MG/KG BW ONCE AT 50 D OF AGE","9/25 (36%), 5/25 (20%), 44%, not significant"
same,"tumour outcome (control, treated, inhibition, significance)","Dose [Inhibitor]: 0, 786 MG/KG IN DIET FOR 26 WK BEGINNING 4 WK POST CARCINOGEN DOSE (STUDY DURATION: 31 WK), Strain/Sex: SPRAGUE-DAWLEY/FEMALE, Target Tissue: Type of Lesion: MAMMARY GLAND: ADENOCARCINOMA, Dose [Carcinogen]: 50 MG/KG ONCE","84%, 74%, 12%, not significant"
same,"tumour outcome (control, treated, inhibition, significance)","Dose [Inhibitor]: 0, 786 MG/KG IN DIET FOR 31 WK BEGINNING 1 WK PRIOR TO CARCINOGEN DOSE (STUDY DURATION: 31 WK), Strain/Sex: SPRAGUE-DAWLEY/FEMALE, Target Tissue: Type of Lesion: MAMMARY GLAND: ADENOCARCINOMA, Dose [Carcinogen]: 50 MG/KG ONCE","84%, 71%, 15%, not significant"
same,"tumour outcome (control, treated, inhibition, significance)","Dose [Inhibitor]: 0, 1173 MG/KG DIET BEGINNING AFTER THE SURGICAL REMOVAL OF THE FIRST PALPABLE TUMOR (STUDY DURATION: LIFETIME), Strain/Sex: SPRAGUE-DAWLEY/FEMALE, Target Tissue: Type of Lesion: MAMMARY GLAND: TUMOR, Dose [Carcinogen]: 35 MG/KG ONCE AT 50 DAYS OF AGE","93%, 88%, 5%, not calculated"
same,"tumour outcome (control, treated, inhibition, significance)","Dose [Inhibitor]: 1 MMOL/KG DIET DAILY STARTING 3 D AFTER LAST CARCINOGEN DOSE THROUGH END OF STUDY (STUDY DURATION: 129 D), Strain/Sex: SPRAGUE-DAWLEY/FEMALE, Target Tissue: Type of Lesion: MAMMARY GLAND: TUMOR, Dose [Carcinogen]: 50 MG/KG BW AT BOTH 50 AND 57 D OF AGE","17/17 (100%), 12/15 (80%), 20%, not significant"
same,"tumour outcome (control, treated, inhibition, significance)","Dose [Inhibitor]: 1 MMOL/KG DIET DAILY STARTING 3 D AFTER LAST CARCINOGEN DOSE THROUGH END OF STUDY (STUDY DURATION: 182 D), Strain/Sex: SPRAGUE-DAWLEY/FEMALE, Target Tissue: Type of Lesion: MAMMARY GLAND: TUMOR, Dose [Carcinogen]: 15 MG/KG BW AT BOTH 50 AND 57 D OF AGE","12/40 (30%), 12/40 (30%), 0%, not significant"
same,"tumour outcome (control, treated, inhibition, significance)","Dose [Inhibitor]: 2 MMOL/KG DIET DAILY FROM 2 D PRIOR THROUGH 12 WK AFTER CARCINOGEN DOSE FOLLOWED BY 16 WK OBSERVATION PERIOD (STUDY DURA, Strain/Sex: SPRAGUE-DAWLEY/FEMALE, Target Tissue: Type of Lesion: MAMMARY GLAND: TUMOR, Dose [Carcinogen]: 25 MG/KG BW ONCE","18/21 (86%), 15/30 (50%), 42%, p 0.027"
same,"tumour outcome (control, treated, inhibition, significance)","Dose [Inhibitor]: 2 MMOL/KG DIET DAILY FROM 2 D THROUGH 17 WK AFTER CARCINOGEN DOSE FOLLOWED BY 11 WK OBSERVATION PERIOD (STUDY DURATION:, Strain/Sex: SPRAGUE-DAWLEY/FEMALE, Target Tissue: Type of Lesion: MAMMARY GLAND: TUMOR, Dose [Carcinogen]: 25 MG/KG BW ONCE","18/21 (86%), 18/30 (60%), 30%, not significant"
same,"tumour outcome (control, treated, inhibition, significance)","Dose [Inhibitor]: 2 MMOL/KG DIET DAILY STARTING 3 D AFTER LAST CARCINOGEN DOSE THROUGH END OF STUDY (STUDY DURATION: 129 D), Strain/Sex: SPRAGUE-DAWLEY/FEMALE, Target Tissue: Type of Lesion: MAMMARY GLAND: TUMOR, Dose [Carcinogen]: 50 MG/KG BW AT BOTH 50 AND 57 D OF AGE","17/17 (100%), 11/17 (65%), 35%, p<0.01"
same,"tumour outcome (control, treated, inhibition, significance)","Dose [Inhibitor]: 2 MMOL/KG DIET DAILY STARTING 3 D AFTER LAST CARCINOGEN DOSE THROUGH END OF STUDY (STUDY DURATION: 182 D), Strain/Sex: SPRAGUE-DAWLEY/FEMALE, Target Tissue: Type of Lesion: MAMMARY GLAND: TUMOR, Dose [Carcinogen]: 15 MG/KG BW AT BOTH 50 AND 57 D OF AGE","12/40 (30%), 6/40 (15%), 50%, not significant"
same,"tumour outcome (control, treated, inhibition, significance)","Dose [Inhibitor]: 2 MMOL/KG DIET DAILY STARTING 12 D AFTER CARCINOGEN TREATMENT THROUGH ABOUT 8 MO AFTER CARCINOGEN DOSE (STUDY DURATION:, Strain/Sex: F344/MALE, Target Tissue: Type of Lesion: COLON: ADENOCARCINOMA, Dose [Carcinogen]: 2.5 MG 1/WK FOR 2 WK","5/39 (13%), 3/30 (10%), 23%, not significant"
